Reference: patent US6689808B2, “Substituted phthalides, a process for their preparations and pharmaceutical compositions containing them” (Les Laboratoires Servier, priority 2000, dated 2004)

Question: Which melting point does the source give for `CCCCCCCCC1OC(=O)c2cc(N)ccc21` (stereo not drawn) [Example 6, 6-Amino-3-octyl-phthalide] here?
Answer: The melting point was 124 to 125 °C.

Question: For `CCCCCCC1OC(=O)c2cc(NC(C)=O)ccc21` (stereo not drawn) [Example 8, 6-Acetamido-3-hexyl-phthalide], which melting point is on record?
Answer: The melting point was 135 to 137 °C.

Question: Which melting point does the source give for `CCCCCCCCC1OC(=O)c2cc(NC(C)=O)ccc21` (stereo not drawn) [Example 9, 6-Acetamido-3-octyl-phthalide] here?
Answer: Its melting point is 133 to 134 °C.

Question: For `CCCCC1OC(=O)c2cc(NC(N)=S)ccc21` (stereo not drawn) [Example 21, 3-Butyl-6-thioureido-phthalide], which melting point is on record?
Answer: The melting point was 183 to 185 °C.

Question: For `CCC1(CC)OC(=O)c2cc([N+](=O)[O-])ccc21` [Example 24, 3,3-Diethyl-6-nitro-phthalide], which melting point is on record?
Answer: The melting point was 98.5 to 100 °C.

Question: For `CCC1(CC)OC(=O)c2cc(N)ccc21` [Example 25, 6-Amino-3,3-diethyl-phthalide], which melting point is on record?
Answer: The melting point was 153 to 154 °C.
